Results on one compound are retold here after patent US20150322083A1, “(THIENO[2,3-b][1,5]BENZOXAZEPIN-4-YL)PIPERAZIN-1-YL COMPOUNDS AS SELECTIVE 5-HT2A INVERSE AGONISTS” (Eli Lilly and Company, priority 2014, published 2015).

Molecules are shown by their SMILES. pIC50, pKi: −log10 of the molar value. Counter-ions that a name gives are not always drawn. Where only a bound is given, the exact number is not on record here.

One assay deals with Dopamine Transporter (Homo sapiens, UniProt Q01959). Briefly: Dopamine transporter binding. As for the experimental part:
(§1) Curves are evaluated using a 4-parameter logistic nonlinear equation to obtain the concentration of competitor causing 50% inhibition of radioligand binding (IC50). Equilibrium dissociation constants (Ki) are calculated according to the equation Ki=IC50/(1+L/Kd), where L equals the concentration of radioligand used in the experiment and Kd equals the equilibrium dissociation constant of the radioligand for the receptor, determined from standard saturation analysis or homologous competition experiments. Reported values for Ki, where n values are indicated, are shown as geometric mean±the standard error of the mean (SEM), with the number of replicate determinations indicated by n. Geometric means are calculated by the equation GeoMean=10̂(Average(log Ki 1+log Ki 2+ . . . log Ki n)/[…]).
(§2) Further, the compounds of the invention may be tested in binding assays and functional activity assays by well known methods for other physiologically important receptors such as, but not limited to, the hERG channel, other serotonin receptors (specifically 5-HT1B receptors, lack of agonist activity at 5-HT2B receptors, 5-HT2C, 5-HT5, 5-HT6, and 5-HT7 receptors), dopaminergic receptors (specifically D1, D2, and D3), H1 receptors, GABAA receptors, adrenergic receptors and monoamine transporters.

The next assay has as its system native GABAA receptors. The assay can be described thus: GABAA antagonism using native receptors in primary neuronal cultures (FLIPR calcium flux). Format: cell-based. The settings on record: against 10 μM GABA, rat cortical embryonic neurons. The protocol:
Activity of compounds on native GABAA receptors is evaluated by monitoring calcium fluxes using a 96 well format FLIPR® system (Fluorometric Imaging Plate Reader (FLIPR®, Molecular Devices). Briefly, cortical embryonic neurons are dissociated from E18 rat embryos and plated at optimum density into black-walled, transparent bottom poly-D-lysine coated 96-well FLIPR® plates. After loading the cells with a calcium sensitive dye (Fluo4-AM, Molecular Devices), the cells are bathed in a solution containing low chloride (chloride replaced by gluconate). Under these conditions activation of GABAA receptors causes an efflux of chloride ions (in the direction of the chemical gradient), which results in membrane depolarization and consequently activation of voltage gated calcium channels (VGCCs). Calcium influx through VGCCs is recorded and analysed offline using the FLIPR® system. For a pharmacological validation of the assay, concentration response curves (CRC) are recorded for the standard agonist (GABA) and standard antagonist (Gabazine). […]
The antagonist effects of compounds are quantified using 10-point dose response curves by comparing the peak fluorescent responses to the agonist GABA in the presence and absence of compound. […] Antagonist effects are calculated as a percent of the assay window. […]

The target in a further assay is Dopamine D3 (Homo sapiens, UniProt P35462). The assay can be described thus: Dopamine D3 binding. As for the experimental part:
as §1, §2

The target in another assay is Dopamine D1 (Homo sapiens, UniProt P21728). Briefly: Dopamine D1 binding. The protocol:
as §1, §2

A further assay concerns the target 5-HT2B (Homo sapiens, UniProt P41595). Briefly: 5-HT2B binding (selectivity data). As for the experimental part: as §1, §2
The next assay has as its target H1 receptors (Homo sapiens, UniProt P35367). Briefly: H1 receptor binding. As for the experimental part: as §1, §2
The target of another assay is Serotonin Transporter (Homo sapiens, UniProt P31645). Briefly: Serotonin transporter binding. The protocol:
as §1, §2

The next assay has as its target Adrenergic alpha1B (Homo sapiens, UniProt P35368). The assay can be described thus: Adrenergic alpha1B binding. The protocol: as §1, §2
For the next assay, the target named is Adrenergic alpha2A (Homo sapiens, UniProt P08913). Briefly: Adrenergic alpha2A binding. The protocol:
as §1, §2

The target of assay [1] is recombinant human 5-HT2A receptor (Homo sapiens, UniProt P28223). Briefly: 5-HT2A competition binding assay ([3H]-Ketanserin, SPA). On the set-up: expressed in transfected cells. The protocol: [^3H]-Ketanserin binding experiments are carried out in SPA 96-well format. Membranes used in this assay are prepared from AV-12 cells stably expressing recombinant 5-HT2A receptors (human). The incubation is initiated by the addition of a mixture of WGA YSi SPA beads (1 mg/well, Perkin Elmer (MA, USA), Product No. RPNQ0011) and 2 μg membranes to assay buffer (67 mM Tris, 0.5 mM EDTA; pH 7.6) containing 3.1 nM [^3H]-Ketanserin and varying concentrations of the test compound (10 point concentration response curves). Non-specific binding is determined in the presence of 20 μM 1-(1-naphthyl)piperazine. Samples are incubated for 4 hr. at room temperature (22° C.) and then read in a microplate scintillation counter.
(§3) Curves are evaluated using a 4-parameter logistic nonlinear equation to obtain the concentration of competitor causing 50% inhibition of radioligand binding (IC50). Equilibrium dissociation constants (Ki) are calculated according to the equation Ki=IC50/(1+L/Kd), where L equals the concentration of radioligand used in the experiment and Kd equals the equilibrium dissociation constant of the radioligand for the receptor, determined from standard saturation analysis or homologous competition experiments. […]

The next assay has as its target Adrenergic alpha2C (Homo sapiens, UniProt P18825). The assay can be described thus: Adrenergic alpha2C binding. As for the experimental part: as §1, §2
In assay [2] the target is T1, recombinant 5-HT2C receptors (human) (Homo sapiens, UniProt P28335).
T1 construct: expressed in transfected cells
Briefly: 5-HT2C competition binding assay ([125I]-(±)DOI, SPA). As for the experimental part:
[^125I]-(±)DOI binding experiments are carried out in SPA 96-well format. Membranes used in this assay are prepared from AV-12 cells stably expressing recombinant 5-HT2C receptors (human). The incubation is initiated by the addition of a mixture of WGA PVT SPA beads (0.5 mg/well, Perkin Elmer (MA, USA), RPNQ0001) and 2.5 μg membranes to assay buffer (50 mM Tris-HCl, 10 mM MgCl2, 0.5 mM EDTA, 10 μM pargyline, 0.1% ascorbic acid, pH7.4) containing 0.2 nM [[^125I]-(±)DOI and varying concentrations of the test compound (10 point concentration response curves). Non-specific binding is determined in the presence of 20 μM 1-(1-naphthyl)piperazine. Samples are incubated for 4 hr. at room temperature (22° C.) and then read in a microplate scintillation counter.
as §3

The next assay addresses Norepinephrine Transport (Homo sapiens, UniProt P23975). Briefly: Norepinephrine transporter binding. The protocol:
as §1, §2

In the next assay the target is Adrenergic alpha1A (Homo sapiens, UniProt P35348). The assay can be described thus: Adrenergic alpha1A binding. As for the experimental part:
as §1, §2

For a further assay, the target named is Dopamine D2 (Homo sapiens, UniProt P14416). The assay can be described thus: Dopamine D2 binding. The protocol:
as §1, §2

Adrenergic alpha1B, sequence (P35368 whole entry): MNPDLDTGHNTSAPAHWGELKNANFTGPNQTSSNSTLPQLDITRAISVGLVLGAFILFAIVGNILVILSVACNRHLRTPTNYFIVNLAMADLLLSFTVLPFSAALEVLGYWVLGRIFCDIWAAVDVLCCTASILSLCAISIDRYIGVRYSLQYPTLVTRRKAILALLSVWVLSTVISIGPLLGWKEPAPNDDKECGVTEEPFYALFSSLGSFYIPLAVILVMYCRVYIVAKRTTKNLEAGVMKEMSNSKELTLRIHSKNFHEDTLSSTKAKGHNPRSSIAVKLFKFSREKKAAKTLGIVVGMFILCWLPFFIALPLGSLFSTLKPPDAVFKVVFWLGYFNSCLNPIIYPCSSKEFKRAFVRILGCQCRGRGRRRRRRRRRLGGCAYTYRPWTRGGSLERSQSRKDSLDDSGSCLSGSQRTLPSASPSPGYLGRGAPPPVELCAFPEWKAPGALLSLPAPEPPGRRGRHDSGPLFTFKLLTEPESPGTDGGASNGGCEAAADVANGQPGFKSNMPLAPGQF
Adrenergic alpha2A, sequence (P08913 whole entry): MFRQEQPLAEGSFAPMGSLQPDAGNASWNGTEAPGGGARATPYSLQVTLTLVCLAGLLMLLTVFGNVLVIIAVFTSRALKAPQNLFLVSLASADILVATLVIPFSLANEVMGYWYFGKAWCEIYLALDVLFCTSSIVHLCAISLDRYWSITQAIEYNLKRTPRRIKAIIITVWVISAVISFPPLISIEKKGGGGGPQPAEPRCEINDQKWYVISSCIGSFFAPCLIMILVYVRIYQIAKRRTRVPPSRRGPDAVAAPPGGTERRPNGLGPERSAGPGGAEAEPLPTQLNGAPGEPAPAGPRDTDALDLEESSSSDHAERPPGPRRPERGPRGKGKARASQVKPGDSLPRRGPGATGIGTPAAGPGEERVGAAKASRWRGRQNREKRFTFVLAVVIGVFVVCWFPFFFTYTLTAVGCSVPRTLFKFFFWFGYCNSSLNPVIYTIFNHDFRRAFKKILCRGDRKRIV
Adrenergic alpha1A, sequence (P35348 whole entry): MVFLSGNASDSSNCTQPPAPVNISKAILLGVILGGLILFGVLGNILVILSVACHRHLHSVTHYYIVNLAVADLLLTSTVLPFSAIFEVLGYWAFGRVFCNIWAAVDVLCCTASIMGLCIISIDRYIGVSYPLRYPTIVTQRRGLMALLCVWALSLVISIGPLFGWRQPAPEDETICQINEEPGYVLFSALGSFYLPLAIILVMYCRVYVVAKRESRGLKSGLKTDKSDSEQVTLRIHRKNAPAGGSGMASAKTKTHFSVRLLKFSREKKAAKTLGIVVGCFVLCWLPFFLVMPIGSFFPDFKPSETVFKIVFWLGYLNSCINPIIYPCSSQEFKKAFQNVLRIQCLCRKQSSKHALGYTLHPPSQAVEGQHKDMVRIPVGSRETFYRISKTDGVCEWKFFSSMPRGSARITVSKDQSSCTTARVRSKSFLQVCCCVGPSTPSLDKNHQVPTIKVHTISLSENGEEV
Norepinephrine Transport, sequence (P23975 whole entry): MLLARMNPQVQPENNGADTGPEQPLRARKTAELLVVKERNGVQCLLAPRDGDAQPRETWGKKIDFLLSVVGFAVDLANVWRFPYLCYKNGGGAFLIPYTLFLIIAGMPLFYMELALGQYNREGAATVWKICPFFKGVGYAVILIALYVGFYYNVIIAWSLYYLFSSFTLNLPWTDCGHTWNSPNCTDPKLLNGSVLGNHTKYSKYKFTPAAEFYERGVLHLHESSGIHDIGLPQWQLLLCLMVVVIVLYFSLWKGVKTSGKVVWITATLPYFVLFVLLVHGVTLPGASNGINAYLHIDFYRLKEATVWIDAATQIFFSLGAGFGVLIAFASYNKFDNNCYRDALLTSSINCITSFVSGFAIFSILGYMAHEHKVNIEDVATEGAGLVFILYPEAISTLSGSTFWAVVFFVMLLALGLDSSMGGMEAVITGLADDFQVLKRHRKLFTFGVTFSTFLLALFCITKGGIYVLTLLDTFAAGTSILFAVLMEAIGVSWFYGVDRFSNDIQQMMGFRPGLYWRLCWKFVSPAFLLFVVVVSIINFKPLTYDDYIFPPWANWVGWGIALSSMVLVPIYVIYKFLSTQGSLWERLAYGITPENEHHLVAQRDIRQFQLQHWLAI
Dopamine D1, sequence (P21728 whole entry): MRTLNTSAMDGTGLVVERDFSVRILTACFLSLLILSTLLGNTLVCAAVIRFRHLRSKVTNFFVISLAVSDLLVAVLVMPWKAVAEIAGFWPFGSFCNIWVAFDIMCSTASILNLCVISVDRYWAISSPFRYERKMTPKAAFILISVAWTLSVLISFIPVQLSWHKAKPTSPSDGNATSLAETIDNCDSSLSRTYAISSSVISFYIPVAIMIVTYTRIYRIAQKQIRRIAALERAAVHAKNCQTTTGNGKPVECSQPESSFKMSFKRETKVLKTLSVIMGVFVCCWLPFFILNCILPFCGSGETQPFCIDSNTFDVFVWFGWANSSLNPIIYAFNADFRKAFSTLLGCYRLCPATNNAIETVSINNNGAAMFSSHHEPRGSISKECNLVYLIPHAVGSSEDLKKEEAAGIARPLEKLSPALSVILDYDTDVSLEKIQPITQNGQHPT
5-HT2B, sequence (P41595 whole entry, species assumed): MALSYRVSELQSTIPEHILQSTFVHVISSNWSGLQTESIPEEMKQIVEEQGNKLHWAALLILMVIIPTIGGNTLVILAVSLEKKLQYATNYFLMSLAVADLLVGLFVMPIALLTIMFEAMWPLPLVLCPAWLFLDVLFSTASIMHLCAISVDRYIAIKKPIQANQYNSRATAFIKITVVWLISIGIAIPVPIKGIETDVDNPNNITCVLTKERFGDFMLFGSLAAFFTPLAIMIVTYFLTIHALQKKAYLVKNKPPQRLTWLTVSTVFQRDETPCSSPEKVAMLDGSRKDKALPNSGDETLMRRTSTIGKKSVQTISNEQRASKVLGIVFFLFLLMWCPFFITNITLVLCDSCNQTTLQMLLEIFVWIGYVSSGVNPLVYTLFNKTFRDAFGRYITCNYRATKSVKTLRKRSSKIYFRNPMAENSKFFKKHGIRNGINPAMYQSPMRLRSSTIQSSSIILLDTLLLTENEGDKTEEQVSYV
Dopamine D3, sequence (P35462 whole entry): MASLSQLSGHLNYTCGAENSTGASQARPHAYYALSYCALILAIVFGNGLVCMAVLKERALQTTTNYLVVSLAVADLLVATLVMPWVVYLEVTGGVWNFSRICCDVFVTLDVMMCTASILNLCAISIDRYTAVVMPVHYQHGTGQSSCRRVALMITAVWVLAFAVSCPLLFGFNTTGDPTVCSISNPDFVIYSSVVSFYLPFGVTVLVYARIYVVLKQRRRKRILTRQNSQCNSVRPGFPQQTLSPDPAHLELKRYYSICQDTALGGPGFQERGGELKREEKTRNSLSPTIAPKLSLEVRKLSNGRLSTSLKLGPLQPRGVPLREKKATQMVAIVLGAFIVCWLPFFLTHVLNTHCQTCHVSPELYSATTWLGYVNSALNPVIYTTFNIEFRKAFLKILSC
T1 sequence (P28335 33-458): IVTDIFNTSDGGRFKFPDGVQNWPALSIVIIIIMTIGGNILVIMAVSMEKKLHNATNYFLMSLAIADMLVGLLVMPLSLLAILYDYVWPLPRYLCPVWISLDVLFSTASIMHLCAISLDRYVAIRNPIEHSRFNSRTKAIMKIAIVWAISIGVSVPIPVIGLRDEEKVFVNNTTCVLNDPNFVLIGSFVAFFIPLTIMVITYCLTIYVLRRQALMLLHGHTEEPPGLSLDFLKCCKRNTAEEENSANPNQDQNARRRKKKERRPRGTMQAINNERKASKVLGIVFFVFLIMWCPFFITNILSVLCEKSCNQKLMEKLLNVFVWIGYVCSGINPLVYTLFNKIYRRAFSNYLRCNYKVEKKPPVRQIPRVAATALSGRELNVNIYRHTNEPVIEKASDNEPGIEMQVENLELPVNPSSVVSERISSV
Adrenergic alpha2C, sequence (P18825 whole entry): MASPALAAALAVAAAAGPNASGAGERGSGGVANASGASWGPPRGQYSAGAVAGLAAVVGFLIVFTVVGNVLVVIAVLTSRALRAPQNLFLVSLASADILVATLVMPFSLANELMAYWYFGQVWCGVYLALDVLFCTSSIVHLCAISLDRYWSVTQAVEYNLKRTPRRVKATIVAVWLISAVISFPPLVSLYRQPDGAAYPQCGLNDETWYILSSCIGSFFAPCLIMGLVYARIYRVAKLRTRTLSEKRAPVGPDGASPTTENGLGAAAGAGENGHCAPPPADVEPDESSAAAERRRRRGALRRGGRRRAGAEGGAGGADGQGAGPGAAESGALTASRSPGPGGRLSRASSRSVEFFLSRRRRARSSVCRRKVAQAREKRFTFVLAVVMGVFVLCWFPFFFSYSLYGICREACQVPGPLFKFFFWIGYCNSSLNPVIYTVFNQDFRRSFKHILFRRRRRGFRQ
H1 receptors, sequence (P35367 whole entry): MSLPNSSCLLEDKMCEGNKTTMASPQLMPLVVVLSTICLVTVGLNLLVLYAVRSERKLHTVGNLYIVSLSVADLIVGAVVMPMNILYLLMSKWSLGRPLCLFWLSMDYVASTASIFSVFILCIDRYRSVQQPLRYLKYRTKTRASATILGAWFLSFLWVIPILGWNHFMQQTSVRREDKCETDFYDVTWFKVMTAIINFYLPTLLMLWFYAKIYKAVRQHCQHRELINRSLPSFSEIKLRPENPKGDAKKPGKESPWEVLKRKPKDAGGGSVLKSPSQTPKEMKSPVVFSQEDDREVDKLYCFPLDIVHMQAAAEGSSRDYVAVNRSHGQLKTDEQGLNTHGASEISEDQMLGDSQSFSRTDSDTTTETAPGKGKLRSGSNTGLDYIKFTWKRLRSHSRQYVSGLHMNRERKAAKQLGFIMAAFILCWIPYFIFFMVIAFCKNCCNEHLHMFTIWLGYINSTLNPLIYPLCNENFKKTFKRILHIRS

Consider `Cc1ccc2c(c1)Oc1sc(SC(C)C)cc1C(N1CCN(CC(C)(C)C(=O)O)CC1)=N2` [Example 2, 3-[4-(2-Isopropylsulfanyl-8-methyl-thieno[2,3-b][1,5]benzoxazepin-4-yl)piperazin-1-yl]-2,2-dimethyl-propanoic acid dihydrochloric acid salt], for which the pKi is less than 6.06 at Dopamine Transporter; less than 5.23 on Dopamine D3; 5.42 on Dopamine D1; 6.12 at 5-HT2B; 6.05 on H1 receptors; less than 6.19 at Serotonin Transporter. Besides, the pKi on Adrenergic alpha1B is 4.98; at Adrenergic alpha2A it was less than 5.05; in [1], 8.21; on Adrenergic alpha2C, less than 5.17; in assay [2] it was 6.11; at Norepinephrine Transport, less than 6.16. Further, the pKi at Adrenergic alpha1A is less than 4.87; on Dopamine D2, less than 5.44. In the assay on native GABAA receptors, the pIC50 is 4.39.
